US10584117B2, “1,3,4-oxadiazole amide derivative compound as histone deacetylase 6 inhibitor, and pharmaceutical composition containing same” (Chong Kun Dang Pharmaceutical Corp., priority 2015, dated 2020)

Target: T1, human recombinant HDAC6 (Homo sapiens, UniProt Q9UBN7)
T1 construct: purchased Calbiochem 382180
T1 sequence (Q9UBN7 1-1215): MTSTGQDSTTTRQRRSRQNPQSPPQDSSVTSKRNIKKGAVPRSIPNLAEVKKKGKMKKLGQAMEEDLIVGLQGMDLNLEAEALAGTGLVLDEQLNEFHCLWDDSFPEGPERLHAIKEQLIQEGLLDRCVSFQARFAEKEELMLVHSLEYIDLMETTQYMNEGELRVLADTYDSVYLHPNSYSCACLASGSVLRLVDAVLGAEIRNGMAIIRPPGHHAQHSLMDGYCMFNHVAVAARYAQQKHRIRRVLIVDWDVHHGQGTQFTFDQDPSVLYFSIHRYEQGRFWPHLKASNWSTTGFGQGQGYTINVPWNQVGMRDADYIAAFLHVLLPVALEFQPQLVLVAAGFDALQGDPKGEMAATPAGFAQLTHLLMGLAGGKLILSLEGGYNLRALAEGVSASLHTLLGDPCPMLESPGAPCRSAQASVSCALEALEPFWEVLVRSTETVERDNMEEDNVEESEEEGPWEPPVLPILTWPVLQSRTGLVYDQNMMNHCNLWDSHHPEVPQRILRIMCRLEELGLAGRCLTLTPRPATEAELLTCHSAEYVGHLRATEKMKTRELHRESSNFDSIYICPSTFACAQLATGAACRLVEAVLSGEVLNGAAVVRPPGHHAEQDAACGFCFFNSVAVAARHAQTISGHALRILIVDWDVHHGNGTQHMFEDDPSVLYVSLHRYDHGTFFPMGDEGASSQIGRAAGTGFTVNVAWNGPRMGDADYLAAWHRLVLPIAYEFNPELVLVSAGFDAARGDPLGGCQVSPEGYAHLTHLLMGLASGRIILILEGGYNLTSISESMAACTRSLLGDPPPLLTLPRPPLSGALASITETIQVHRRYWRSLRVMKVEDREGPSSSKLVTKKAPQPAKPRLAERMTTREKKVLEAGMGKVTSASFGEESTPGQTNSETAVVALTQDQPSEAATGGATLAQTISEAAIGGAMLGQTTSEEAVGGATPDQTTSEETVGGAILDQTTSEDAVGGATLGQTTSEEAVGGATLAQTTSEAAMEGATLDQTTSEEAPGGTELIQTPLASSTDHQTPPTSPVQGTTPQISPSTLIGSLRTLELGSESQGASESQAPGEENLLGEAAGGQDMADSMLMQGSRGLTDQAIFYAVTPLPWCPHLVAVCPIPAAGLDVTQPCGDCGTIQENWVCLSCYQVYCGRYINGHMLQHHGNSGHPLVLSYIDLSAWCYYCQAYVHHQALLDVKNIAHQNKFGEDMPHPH
Assay: HDAC enzyme activity inhibition assay (HDAC6, fluorimetric kit)
Type: biochemical
Conditions: for HDAC6 selectivity (fold): HDAC6 versus HDAC1; for IC50: same protocol as the HDAC1 test
Procedure: In order to examine the HDAC6 selectivity of the compounds of formula I of the present invention by HDAC1 and HDAC6 enzymatic activity inhibition assays, an experiment was performed using a conventional substance as a control. HDAC enzyme activity was measured using a HDAC Fluorimetric Drug Discovery Kit (BML-AK511, 516) from Enzo Life Science. For the HDAC1 enzyme activity test, human recombinant HDAC1 (BML-SE456) was used as an enzyme source, and Fluor de Lys®-“SIRT1 (BNL-KI177) was used as a substrate. A 5-fold dilution of the compound was seeded into a 96-well plate, and then 0.3 μg of the enzyme and 10 μM of the substrate were added to each well of the plate and allowed to react at 30° C. for 60 minutes. Then, Fluor de Lys®-Developer II (BML-KI176) was added thereto and allowed to react for 30 minutes, after which the fluorescence value (Ex 360, Em 460) was measured using a multi-plate reader (Flexstation 3, Molecular Device). The HDAC6 enzyme was tested using human recombinant HDAC6 (382180) from Calbiochem, according to the same protocol as the HDAC1 enzyme activity test method. Based on the resulting values, each IC50 value was calculated using GraphPad Prism4.0 program.

SMILES	HDAC6 selectivity (fold)	IC50 [nM]
CC(=O)N1CC(C(=O)N(Cc2ccc(-c3nnc(C(F)F)o3)cc2F)c2cccc(F)c2)C1 [Compound 11330, 1-acetyl-N-(4-(5-(difluoromethyl)-1,3,4-oxadiazol-2-yl)-2-fluorobenzyl)-N-(3-fluorophenyl)azetidine-3-carboxamide]	1961	51
CC(C)N1CCC(C(=O)N(Cc2ccc(-c3nnc(C(F)(F)F)o3)cc2F)c2ccccc2)CC1 [Compound 11202, N-(2-fluoro-4-(5-(trifluoromethyl)-1,3,4-oxadiazol-2-yl)benzyl)-1-isopropyl-N-phenylpiperidine-4-carboxamide]	735	136
O=C(CN1CCC[C@@H]1CO)N(Cc1ccc(-c2nnc(C(F)F)o2)cc1F)c1ccc(F)c(Cl)c1 [Compound 11537, (R)-N-(3-chloro-4-fluorophenyl)-N-(4-(5-(difluoromethyl)-1,3,4-oxadiazol-2-yl)-2-fluorobenzyl)-2-(2-(hydroxymethyl)pyrrolidin-1-yl)acetamide]	1429	70
CS(=O)(=O)N1CCC(C(=O)N(Cc2ccc(-c3nnc(C(F)F)o3)cc2F)c2ccccc2)CC1 [Compound 11215, N-(4-(5-(difluoromethyl)-1,3,4-oxadiazol-2-yl)-2-fluorobenzyl)-1-(methylsulfonyl)-N-phenylpiperidine-4-carboxamide]	1667	60
O=C(c1ccncc1)N(Cc1ccc(-c2nnc(C(F)F)o2)cc1)c1ccccc1 [Compound 11108, N-(4-(5-(difluoromethyl)-1,3,4-oxadiazol-2-yl)benzyl)-N-phenylisonicotinamide]	1695	59
CCC(=O)N1CCC(C(=O)N(Cc2ccc(-c3nnc(C(F)(F)F)o3)cc2F)c2ccccc2)CC1 [Compound 11204, N-(2-fluoro-4-(5-(trifluoromethyl)-1,3,4-oxadiazol-2-yl)benzyl)-N-phenyl-1-propionylpiperidine-4-carboxamide]	917	109
CC(C)C(=O)N1CC(C(=O)N(Cc2ccc(-c3nnc(C(F)(F)F)o3)cc2F)c2ccccc2)C1 [Compound 11236, N-(2-fluoro-4-(5-(trifluoromethyl)-1,3,4-oxadiazol-2-yl)benzyl)-1-isobutyryl-N-phenylazetidine-3-carboxamide]	1370	73
CC(=O)N1CC(C(=O)N(Cc2ccc(-c3nnc(C(F)(F)F)o3)cc2)c2ccccc2)C1 [Compound 11187, N1-acetyl-N-phenyl-N-(4-(5-(trifluoromethyl)-1,3,4-oxadiazol-2-yl)benzyl)azetidine-3-carboxamide]	144	189
CCC(=O)N1CC(C(=O)N(Cc2ccc(-c3nnc(C(F)(F)F)o3)cc2)c2ccccc2)C1 [Compound 11157, N-phenyl-1-propionyl-N-(4-(5-(trifluoromethyl)-1,3,4-oxadiazol-2-yl)benzyl)azetidine-3-carboxamide]	1111	90
O=C(C1CCN(C(=O)C(F)(F)F)CC1)N(Cc1ccc(-c2nnc(C(F)F)o2)cc1F)c1ccccc1 [Compound 11214, N-(4-(5-(difluoromethyl)-1,3,4-oxadiazol-2-yl)-2-fluorobenzyl)-N-phenyl-1-(2,2,2-trifluoroacetyl)piperidine-4-carboxamide]	714	140
CN1CCC(C(=O)N(Cc2ccc(-c3nnc(C(F)F)o3)cc2F)c2ccccc2)CC1 [Compound 11208, N-(4-(5-(difluoromethyl)-1,3,4-oxadiazol-2-yl)-2-fluorobenzyl)-1-methyl-N-phenylpiperidine-4-carboxamide]	1136	88
O=C(C1CCCCC1)N(Cc1ccc(-c2nnc(C(F)(F)F)o2)cc1)c1ccccc1 [Compound 11106, N-phenyl-N-(4-(5-(trifluoromethyl)-1,3,4-oxadiazol-2-yl)benzyl)cyclohexanecarboxamide]	77	1300
CCN1CCC(C(=O)N(Cc2ccc(-c3nnc(C(F)F)o3)cc2F)c2ccccc2)CC1 [Compound 11209, N-(4-(5-(difluoromethyl)-1,3,4-oxadiazol-2-yl)-2-fluorobenzyl)-1-ethyl-N-phenylpiperidine-4-carboxamide]	1031	97
CC(=O)N1CCC(C(=O)N(Cc2ccc(-c3nnc(C(F)(F)F)o3)cc2F)c2ccccc2)CC1 [Compound 11203, 1-acetyl-N-(2-fluoro-4-(5-(trifluoromethyl)-1,3,4-oxadiazol-2-yl)benzyl)-N-phenylpiperidine-4-carboxamide]	694	144

Stronger by IC50, values ahead:

HDAC6 selectivity (fold)	IC50 [nM]	SMILES
2041	49	CCCN1CC(C(=O)N(Cc2ccc(-c3nnc(C(F)F)o3)cc2F)c2cccc(F)c2)C1 [Compound 11327, N-(4-(5-(difluoromethyl)-1,3,4-oxadiazol-2-yl)-2-fluorobenzyl)-N-(3-fluorophenyl)-1-propylazetidine-3-carboxamide]
2128	47	CS(=O)(=O)N1CC(C(=O)N(Cc2ccc(-c3nnc(C(F)F)o3)cc2F)c2ccccc2)C1 [Compound 11245, N-(4-(5-(difluoromethyl)-1,3,4-oxadiazol-2-yl)-2-fluorobenzyl)-1-(methylsulfonyl)-N-phenylazetidine-3-carboxamide]
3448	29	CS(=O)(=O)N1CC(C(=O)N(Cc2ccc(-c3nnc(C(F)F)o3)cc2F)c2cccc(F)c2)C1 [Compound 11333, N-(4-(5-(difluoromethyl)-1,3,4-oxadiazol-2-yl)-2-fluorobenzyl)-N-(3-fluorophenyl)-1-(methylsulfonyl)azetidine-3-carboxamide]
3333	30	CCN1CCC(C(=O)N(Cc2ccc(-c3nnc(C(F)F)o3)cn2)c2cccc(F)c2)CC1 [Compound 11419, N-((5-(5-(difluoromethyl)-1,3,4-oxadiazol-2-yl)pyridin-2-yl)methyl)-1-ethyl-N-(3-fluorophenyl)piperidine-4-carboxamide]
3125	32	CC(C)C(=O)N1CC(C(=O)N(Cc2ccc(-c3nnc(C(F)F)o3)cc2F)c2ccccc2)C1 [Compound 11243, N-(4-(5-(difluoromethyl)-1,3,4-oxadiazol-2-yl)-2-fluorobenzyl)-1-isobutyryl-N-phenylazetidine-3-carboxamide]
2439	41	CC(C)N1CC(C(=O)N(Cc2ccc(-c3nnc(C(F)F)o3)cc2F)c2ccccc2)C1 [Compound 11240, N-(4-(5-(difluoromethyl)-1,3,4-oxadiazol-2-yl)-2-fluorobenzyl)-1-isopropyl-N-phenylazetidine-3-carboxamide]
3125	32	O=C(c1ccncc1)N(Cc1ccc(-c2nnc(C(F)F)o2)cn1)c1cccc(F)c1 [Compound 11360, N-((5-(5-(difluoromethyl)-1,3,4-oxadiazol-2-yl)pyridin-2-yl)methyl)-N-(3-fluorophenyl)isonicotinamide]
